In ChEMBL document CHEMBL1134095, “Biaryl ether retrohydroxamates as potent, long-lived, orally bioavailable MMP inhibitors” (Bioorg Med Chem Lett, 2001):

Tests used:
[1] = Area under curve determined after peroral administration at a dose of 10 mg/kg in cynomolgus monkey; type: ADME, organism-based, Macaca fascicularis; set-up: dose 10 mg/kg, route oral; conditions: in vivo, po
[2] = Area under curve determined after intravenous administration at a dose of 3 mg/kg in cynomolgus monkey; type: ADME, organism-based, Macaca fascicularis; set-up: dose 3 mg/kg, route intravenous; conditions: in vivo
[3] = Half life determined after intravenous administration at a dose of 3 mg/kg in cynomolgus monkey; type: ADME, organism-based, Macaca fascicularis; set-up: dose 3 mg/kg, route intravenous; conditions: in vivo
[4] = target: 72 kDa type IV collagenase (Homo sapiens, UniProt P08253); assay: In vitro inhibition of Matrix metalloprotease-2
Stromelysin-1 = Stromelysin-1 (Homo sapiens, UniProt P08254); assay: In vitro inhibition of Matrix metalloprotease-3
[5] = Oral bioavailability in cynomolgus monkey; type: ADME, organism-based, Macaca fascicularis; conditions: in vivo
Interstitial collagenase = target: T1, Interstitial collagenase (Homo sapiens, UniProt P03956); assay: In vitro inhibition of Matrix metalloprotease-1.
T1 sequence (P03956 whole entry): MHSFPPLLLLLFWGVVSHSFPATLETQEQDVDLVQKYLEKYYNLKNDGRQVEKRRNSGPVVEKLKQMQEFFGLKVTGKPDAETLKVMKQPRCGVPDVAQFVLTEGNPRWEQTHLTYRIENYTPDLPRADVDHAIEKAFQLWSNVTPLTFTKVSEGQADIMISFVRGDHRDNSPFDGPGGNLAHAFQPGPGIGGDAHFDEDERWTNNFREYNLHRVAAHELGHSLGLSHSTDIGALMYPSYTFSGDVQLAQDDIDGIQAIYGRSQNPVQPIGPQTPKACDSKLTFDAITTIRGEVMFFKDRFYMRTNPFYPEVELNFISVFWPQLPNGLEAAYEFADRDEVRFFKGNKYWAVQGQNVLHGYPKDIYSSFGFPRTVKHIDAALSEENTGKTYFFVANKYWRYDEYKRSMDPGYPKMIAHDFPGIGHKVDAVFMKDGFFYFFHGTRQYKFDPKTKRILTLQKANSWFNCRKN

[6] = Area under curve determined after peroral administration at a dose of 3 mg/kg in cynomolgus monkey; type: ADME, organism-based, Macaca fascicularis; set-up: dose 3 mg/kg, route oral; conditions: in vivo, po
[7] = Half life after iv administration in cynomolgus monkey; type: ADME, organism-based, Macaca fascicularis; conditions: in vivo
[8] = Oral Bioavailability in rat; type: ADME, organism-based; conditions: in vivo
[9] = Half life determined in rat by intravenous administration; type: ADME, organism-based; conditions: in vivo
[10] = Bioavailability determined after oral administration in marmoset; type: ADME, organism-based; conditions: callitrichinae sp., in vivo

Sequence of Stromelysin-1 (P08254 whole entry): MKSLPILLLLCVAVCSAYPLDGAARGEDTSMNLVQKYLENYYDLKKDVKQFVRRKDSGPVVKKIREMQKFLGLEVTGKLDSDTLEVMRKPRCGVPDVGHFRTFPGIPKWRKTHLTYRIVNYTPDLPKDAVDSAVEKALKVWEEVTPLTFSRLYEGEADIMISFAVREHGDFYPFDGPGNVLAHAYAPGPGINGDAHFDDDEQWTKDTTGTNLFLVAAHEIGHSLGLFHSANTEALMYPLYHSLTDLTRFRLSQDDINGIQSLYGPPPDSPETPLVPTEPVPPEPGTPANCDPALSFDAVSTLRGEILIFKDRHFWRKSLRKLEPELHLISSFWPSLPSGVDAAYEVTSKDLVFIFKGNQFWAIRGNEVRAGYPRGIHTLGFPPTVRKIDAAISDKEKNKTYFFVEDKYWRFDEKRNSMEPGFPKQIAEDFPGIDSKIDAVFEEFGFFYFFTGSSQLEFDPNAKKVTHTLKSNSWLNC
Sequence of 72 kDa type IV collagenase (P08253 whole entry): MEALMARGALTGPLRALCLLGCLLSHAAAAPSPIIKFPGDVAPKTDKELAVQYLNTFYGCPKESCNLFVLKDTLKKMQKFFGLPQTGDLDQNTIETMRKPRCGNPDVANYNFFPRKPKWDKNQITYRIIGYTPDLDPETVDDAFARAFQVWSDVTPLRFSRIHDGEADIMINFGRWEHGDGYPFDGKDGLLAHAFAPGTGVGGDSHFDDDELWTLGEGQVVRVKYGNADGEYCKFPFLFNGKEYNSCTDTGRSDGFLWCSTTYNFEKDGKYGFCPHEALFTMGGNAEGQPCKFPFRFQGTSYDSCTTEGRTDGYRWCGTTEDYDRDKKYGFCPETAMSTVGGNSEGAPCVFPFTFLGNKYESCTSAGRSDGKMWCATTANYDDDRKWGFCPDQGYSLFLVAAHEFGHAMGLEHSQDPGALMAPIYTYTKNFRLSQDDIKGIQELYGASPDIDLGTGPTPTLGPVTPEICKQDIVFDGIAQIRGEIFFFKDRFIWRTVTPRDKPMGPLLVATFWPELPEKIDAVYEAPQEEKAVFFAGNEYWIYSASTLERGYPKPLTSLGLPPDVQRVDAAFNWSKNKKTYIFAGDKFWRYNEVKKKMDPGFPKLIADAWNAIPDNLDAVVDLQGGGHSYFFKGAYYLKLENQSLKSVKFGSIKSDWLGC

| SMILES | half-life [3] [h] | IC50 [4] [nM] | IC50 (Stromelysin-1) [nM] | IC50 (Interstitial collagenase) [nM] | also measured |
| --- | --- | --- | --- | --- | --- |
| CC1(C)NC(=O)N(CCC(COc2ccc(-c3ccc(C#N)cc3)cc2)N(O)C=O)C1=O (stereo unspecified) | 12.7 | 6900 | 35 | 14000 | AUC [2]: 47.5 uM hr l-1; AUC [6]: 2.4 uM hr l-1; bioavailability [5]: 6% |
| CCN1C(=O)N(CC(COc2ccc(-c3ccc(C#N)cc3)cc2)N(O)C=O)C(=O)C1(C)C (stereo unspecified) | 1.8 | 12000 | 27 | 2400 | AUC [2]: 12.3 uM hr l-1 |
| CC1(C)CC(=O)N(CC(COc2ccc(-c3ccc(C#N)cc3)cc2)N(O)C=O)C(=O)C1 (stereo unspecified) | – | 25000 | 37 | 360 | – |
| N#Cc1ccc(-c2ccc(OCC(Cc3ccc(F)cc3)N(O)C=O)cc2)cc1 (stereo unspecified) | – | – | 180 | 14000 | half-life [7]: < 1 h |
| N#Cc1ccc(-c2ccc(OCCC(=O)O)cc2)cc1 | – | 8000 | > 10 | – | – |
| N#Cc1ccc(-c2ccc(OCC(c3ccc(F)cc3)N(O)C=O)cc2)cc1 (stereo unspecified) | – | – | 300 | > 10000 | half-life [7]: < 1 h |
| N#Cc1ccc(-c2ccc(OCC(CSc3ccccc3)N(O)C=O)cc2)cc1 (stereo unspecified) | 0.3 | – | 36 | 4100 | half-life [7]: < 1 h |
| CC(COc1ccc(-c2ccc(C#N)cc2)cc1)N(O)C=O (stereo unspecified) | – | 76000 | 620 | > 10000 | bioavailability [8]: 33%; half-life [9]: 1.6 h |
| N#Cc1ccc(-c2ccc(OCC(COc3ccccc3)N(O)C=O)cc2)cc1 (stereo unspecified) | – | – | 130 | > 10000 | half-life [7]: < 1 h |
| Cc1ccc(=O)n(CC(COc2ccc(-c3ccc(C#N)cc3)cc2)N(O)C=O)n1 (stereo unspecified) | 0.5 | 3400 | 37 | 4200 | – |
| CC(=O)N(O)CCOc1ccc(-c2ccc(C#N)cc2)cc1 | – | 5900 | – | – | – |
| CC(COc1ccc(-c2ccc(C#N)cc2)cc1)C(=O)NO (stereo unspecified) | – | 19000 | 45 | 2500 | bioavailability [8]: 7%; half-life [9]: 0.3 h |
| N#Cc1ccc(-c2ccc(OCCNC(=O)NO)cc2)cc1 | – | > 100000 | 80 | > 50 | – |
| CC(C)CC(COc1ccc(-c2ccc(C#N)cc2)cc1)N(O)C=O (stereo unspecified) | – | – | 120 | > 10000 | half-life [7]: < 1 h |
| N#Cc1ccc(-c2ccc(OCCN(O)C(N)=O)cc2)cc1 | – | 35000 | > 100 | > 50 | – |

More lines, in order of falling IC50 (Stromelysin-1), values ahead:

| half-life [3] [h] | IC50 [4] [nM] | IC50 (Stromelysin-1) [nM] | IC50 (Interstitial collagenase) [nM] | SMILES | also measured |
| --- | --- | --- | --- | --- | --- |
| 7.7 | 7800 | 24 | 2100 | CC1(C)NC(=O)N(CC(COc2ccc(-c3ccc(C#N)cc3)cc2)N(O)C=O)C1=O (stereo unspecified) | bioavailability [10]: 85%; AUC [2]: 24 uM hr l-1; AUC [6]: 27.2 uM hr l-1; bioavailability [5]: 110% |
| 0.3 | 37000 | 21 | > 10000 | N#Cc1ccc(-c2ccc(OCC(CN3C(=O)c4ccccc4C3=O)N(O)C=O)cc2)cc1 (stereo unspecified) | – |
| 0.5 | 45000 | 17 | > 10000 | CN1C(=O)N(CCC(COc2ccc(-c3ccc(C#N)cc3)cc2)N(O)C=O)C(=O)C1(C)C (stereo unspecified) | AUC [1]: 1.8 uM hr l-1; AUC [2]: 8 uM hr l-1; bioavailability [5]: 6% |
| 7.3 | 8200 | 14 | 2400 | N#Cc1ccc(-c2ccc(OCC(CN3C(=O)CNC3=O)N(O)C=O)cc2)cc1 (stereo unspecified) | AUC [2]: 59.8 uM hr l-1; AUC [6]: 68 uM hr l-1; bioavailability [5]: 100% |
| 0.6 | 5200 | 11 | > 10000 | N#Cc1ccc(-c2ccc(OCC(CN3C(=O)CCC3=O)N(O)C=O)cc2)cc1 (stereo unspecified) | – |
| 2.5 | 58000 | 9.1 | – | CN1C(=O)N(CC(COc2ccc(-c3ccc(C#N)cc3)cc2)N(O)C=O)C(=O)C1(C)C (stereo unspecified) | AUC [1]: 11.8 uM hr l-1; AUC [2]: 15.2 uM hr l-1; bioavailability [5]: 23% |
| – | 400 | 0.062 | > 50 | N#Cc1ccc(-c2ccc(OCCN(O)C=O)cc2)cc1 | – |
| – | 32 | 0.057 | 3.3 | N#Cc1ccc(-c2ccc(OCCC(=O)NO)cc2)cc1 | – |
